Data on 20 compounds can be found in PMC6522510 (Nature Communications, 2019).

One test relates to M07e. Nature of the test: cells. Also noted: species or system AML cell lines (8); Secondary HTS, 10-point dose-response in triplicate, Cell Titer Glo viability, four-parameter fit EC50. Conditions: M-07e, 72 h, read-out: M07e.
The test system of test [1] is U937. The test can be described thus: cells. Also on record: species or system AML cell lines (8); Secondary HTS, 10-point dose-response in triplicate, Cell Titer Glo viability, four-parameter fit EC50. The conditions noted are these: Homo sapiens, U-937, 72 h, read-out: U937.
The next test concerns CMS. Nature of the test: cells. Also noted: species or system AML cell lines (8); Secondary HTS, 10-point dose-response in triplicate, Cell Titer Glo viability, four-parameter fit EC50. The conditions noted are these: 72 h, read-out: CMS.
The test system of another test is CMK. Nature of the test: cells. Also noted: species or system AML cell lines (8); Secondary HTS, 10-point dose-response in triplicate, Cell Titer Glo viability, four-parameter fit EC50. The conditions noted are these: Homo sapiens, CMK, 72 h, read-out: CMK.
For test [2], the system named is MOLM-13. Nature of the test: cells. Also on record: species or system AML cell lines (8); Secondary HTS, 10-point dose-response in triplicate, Cell Titer Glo viability, four-parameter fit EC50. The conditions noted are these: Homo sapiens, MOLM-13, 72 h, read-out: MOLM-13.
Test [3] concerns CHRF288-11. Nature of the test: cells. The conditions noted are these: 72 h, read-out: CHRF288-11. Also noted: species or system AML cell lines (8); Secondary HTS, 10-point dose-response in triplicate, Cell Titer Glo viability, four-parameter fit EC50.
The next test has as its system ML-2. The test can be described thus: cells. Also noted: species or system AML cell lines (8); Secondary HTS, 10-point dose-response in triplicate, Cell Titer Glo viability, four-parameter fit EC50. Conditions: Homo sapiens, ML-2, 72 h, read-out: ML-2.
Test [4] has as its system MV4-11. The test can be described thus: cells. Also on record: species or system AML cell lines (8); Secondary HTS, 10-point dose-response in triplicate, Cell Titer Glo viability, four-parameter fit EC50. Conditions: Homo sapiens, MV4-11, 72 h, read-out: MV4-11.
Test [5] deals with MOLM-13. The test can be described thus: Secondary dose-response HTS, Cell Titer Glo. In kind it is cell-based, human. Conditions: Homo sapiens; secondary high-throughput screen; MOLM-13; read-out: average effective concentration, MOLM-13. A general note: Cellular ATP, detected with luciferase, serves as a proxy for viable cell number.
Test [6] concerns CHRF288-11. The test can be described thus: Secondary dose-response HTS, Cell Titer Glo. In kind it is cell-based, human. The conditions noted are these: Homo sapiens, HTS; secondary high-throughput screen; CHRF288-11; read-out: average effective concentration, CHRF288-11.
Test [7] has as its system MV4-11. The test can be described thus: Secondary dose-response HTS, Cell Titer Glo. In kind it is cell-based, human. The conditions noted are these: Homo sapiens; secondary high-throughput screen; MV4-11; read-out: average effective concentration, MV4-11.
For test [8], the system named is U937. The test can be described thus: Secondary dose-response HTS, Cell Titer Glo. The format is cell-based, human. Conditions: Homo sapiens, U-937; secondary high-throughput screen; U937; read-out: average effective concentration, U937.

`Cc1cc(C(C)Nc2ccccc2)c2nc(N3CCOCC3)cc(=O)n2c1` (stereo not shown) [SJ000803731, TGX-221]: the EC50 was greater than 10 µM in the test on M07e; greater than 10 µM with U937 [1]; greater than 10 µM with CMS; greater than 10 µM in the test on CMK; 8 µM with MOLM-13 [2]; greater than 10 µM in the test on CHRF288-11 [3]. Besides, the EC50 with ML-2 and in the test with MV4-11 [4] was greater than 10 µM each time.

Turning to `CC[C@H](Nc1ncnc2[nH]cnc12)c1nc2cccc(F)c2c(=O)n1-c1ccccc1` [IDELALISIB], the EC50 in the test with M07e, with U937 [1], in the test with CMS, with CMK, with MOLM-13 [2] and in the test with CHRF288-11 [3] was greater than 10 µM each time. Besides, the EC50 in the test with ML-2 and in the test with MV4-11 [4] was greater than 10 µM throughout.

As for `CO[C@H]1/C=C\C=C(/C)C(=O)NC2=CC(=O)C(NCCN(C)C)=C(C[C@@H](C)C[C@H](OC)[C@H](O)[C@@H](C)/C=C(\C)[C@@H]1OC(N)=O)C2=O` [SJ000534765, 17-DMAG], the EC50 with M07e was 2 µM; with U937 [1] it was 0.025 µM; in the test with CMS, 0.092 µM; with CMK, 0.75 µM; in the test with MOLM-13 [2], 0.039 µM; with CHRF288-11 [3] it was 0.52 µM. For the same compound, the values for the EC50 in the test with ML-2 and in the test with MV4-11 [4] were 0.046 µM and 0.044 µM, respectively.

As for `O=C(Nc1cccc(NC(=O)c2cccc(O)c2O)c1)c1cccc(O)c1O` [SJ000784251, MST312], the EC50 in the test with M07e is 5.2 µM; in the test on U937 [1], 2.8 µM; in the test with CMS it was 2.9 µM; in the test with CMK, greater than 10 µM; in the test with MOLM-13 [2], 1.5 µM; in the test with CHRF288-11 [3], 2 µM. The EC50 in the test on ML-2 was 3.7 µM; in the test on MV4-11 [4], greater than 10 µM.

With `COc1cccc(-c2cc(=O)c3ccccc3o2)c1N` [SJ000288145, PD 98059], the EC50 with M07e, with U937 [1], in the test on CMS, in the test on CMK, in the test with MOLM-13 [2] and in the test on CHRF288-11 [3] was greater than 10 µM each time. In addition, the EC50 in the test with ML-2 and in the test on MV4-11 [4] was greater than 10 µM each time.

As for `Cc1nc(C(=O)NCC(=O)O)c(O)c2ccc(Oc3ccccc3)cc12` [FG-4592], the EC50 was greater than 10 µM in the test on M07e; greater than 10 µM in the test with U937 [1]; 0.002 µM in the test with MOLM-13 [5]; greater than 10 µM with CMS; greater than 10 µM in the test on CMK; greater than 10 µM in the test on CHRF288-11 [3]. Further, the EC50 in the test on ML-2 and in the test with MV4-11 [4] was greater than 10 µM throughout.

Consider `N#Cc1ccc(COC[C@H]2O[C@@H](n3c(NCc4ccc(Cl)c(Cl)c4)nc4c(N)ncnc43)[C@H](O)[C@@H]2O)cc1` [SJ000833885, VER-155008], for which the EC50 with M07e is greater than 10 µM; in the test on U937 [1] it was greater than 10 µM; in the test with CMS, 5.9 µM; with CMK, greater than 10 µM; in the test with MOLM-13 [2] it was greater than 10 µM; in the test with CHRF288-11 [3], greater than 10 µM. Also, the EC50 in the test on ML-2 and with MV4-11 [4] was greater than 10 µM throughout.

As for `CC(C)C(=O)SCCCCCCC(=O)Nc1nc(-c2ccccc2)cs1` [SJ000784276, NCH 51], the EC50 with M07e was 3.6 µM; in the test with U937 [1] it was 6.7 µM; in the test on CMS it was 4.5 µM; with CMK it was greater than 10 µM; in the test with MOLM-13 [2] it was 3.1 µM; in the test on CHRF288-11 [3], 3.6 µM. In addition, the EC50 with ML-2 is 5.6 µM; in the test with MV4-11 [4] it was greater than 10 µM.

As to `CN(C)CCCNc1c2ccccc2nc2c1[nH]c1ccccc12` [SJ000784272, SYUIQ-5], the EC50 in the test with M07e was 0.54 µM; with U937 [1] it was 0.21 µM; in the test on CMS, 0.37 µM; with CMK, greater than 10 µM; in the test with MOLM-13 [2], 1.6 µM; in the test on CHRF288-11 [3], 1.6 µM. Further, the values for the EC50 with ML-2 and in the test with MV4-11 [4] were 1.8 µM and greater than 10 µM, respectively.

`C[C@H]1C[C@H]2[C@@H]3CCC4=CC(=O)C=C[C@]4(C)[C@@]3(F)[C@@H](O)C[C@]2(C)[C@@]1(O)C(=O)CO` [BETAMETHASONE]: the EC50 in the test on M07e, in the test on U937 [1], with CMS, in the test with CMK, in the test with MOLM-13 [2] and with CHRF288-11 [3] was greater than 10 µM each time. The EC50 with ML-2 and with MV4-11 [4] was greater than 10 µM in each case.

Consider `O=c1[nH]c(=O)n([C@H]2C[C@H](O)[C@@H](CO)O2)cc1/C=C/Br` [BRIVUDINE], for which the EC50 in the test on M07e, in the test with U937 [1], in the test on CMS, with CMK, in the test with MOLM-13 [2] and in the test on CHRF288-11 [3] was greater than 10 µM each time. Moreover, the EC50 in the test on ML-2 and in the test on MV4-11 [4] was greater than 10 µM in each case.

In the case of `O[C@@H]1CO[C@H]2[C@@H]1OC[C@@H]2O` [ISOSORBIDE], the EC50 with M07e, in the test with U937 [1], with CMS, in the test on CMK, in the test with MOLM-13 [2] and in the test on CHRF288-11 [3] was greater than 10 µM throughout. The EC50 with ML-2 and in the test with MV4-11 [4] was greater than 10 µM in each case.

Consider `COC(=O)[C@H](CCSC)NC(=O)c1ccc(NC[C@@H](N)CS)cc1-c1ccccc1` [SJ000803699, FTI-277], for which the EC50 with M07e, in the test with U937 [1], with CMS, in the test on CMK, with MOLM-13 [2] and in the test on CHRF288-11 [3] was greater than 10 µM each time. Besides, the EC50 in the test on ML-2 and with MV4-11 [4] was greater than 10 µM each time.

`CC[C@H](C)C(=O)O[C@H]1CCC=C2C=C[C@H](C)[C@H](CC[C@@H]3C[C@@H](O)CC(=O)O3)[C@H]21` [MEVASTATIN]: the EC50 with M07e is greater than 10 µM; in the test on U937 [1], greater than 10 µM; with MOLM-13 [5] it was 8.9 µM; with CMS it was greater than 10 µM; in the test on CHRF288-11 [6], 6.6 µM; in the test with CMK, greater than 10 µM. Besides, the EC50 in the test on ML-2 and in the test with MV4-11 [4] was greater than 10 µM throughout.

As to `CNC(=O)c1cc(Oc2ccc(NC(=O)Nc3ccc(Cl)c(C(F)(F)F)c3)c(F)c2)ccn1` [REGORAFENIB], the EC50 in the test on M07e is greater than 10 µM; in the test with U937 [1] it was greater than 10 µM; in the test with MOLM-13 [5] it was 1.5 µM; with CMS it was greater than 10 µM; in the test on CMK, greater than 10 µM; in the test on CHRF288-11 [3], greater than 10 µM. Besides, the results for the EC50 in the test on ML-2 and in the test with MV4-11 [7] were greater than 10 µM and 0.34 µM, respectively.

In the case of `CCc1nc(N)nc(N)c1-c1ccc(Cl)cc1` [PYRIMETHAMINE], the EC50 is greater than 10 µM with M07e; greater than 10 µM with U937 [1]; 4.5 µM with MOLM-13 [5]; greater than 10 µM in the test on CMS; greater than 10 µM in the test with CMK; greater than 10 µM with CHRF288-11 [3]. The EC50 in the test on ML-2 and with MV4-11 [7] was greater than 10 µM throughout.

Turning to `Oc1ccc(/C=C/c2cc(O)cc(O)c2)cc1` [RESVERATROL], the EC50 is greater than 10 µM in the test with M07e; greater than 10 µM with U937 [1]; 8.9 µM in the test with MOLM-13 [5]; greater than 10 µM with CMS; greater than 10 µM in the test with CMK; greater than 10 µM in the test on CHRF288-11 [3]. Further, the EC50 with ML-2 and with MV4-11 [7] was greater than 10 µM in each case.

`CCCC(CCC)C(=O)O` [VALPROATE SODIUM]: the EC50 was greater than 10 µM in the test with M07e; greater than 10 µM in the test on U937 [1]; 0.077 µM in the test with MOLM-13 [5]; greater than 10 µM in the test with CMS; greater than 10 µM in the test on CMK; greater than 10 µM with CHRF288-11 [3]. For the same compound, the EC50 in the test on ML-2 and with MV4-11 [4] was greater than 10 µM throughout.

Consider `Cc1ccc(NC(=O)c2ccc(CN3CCN(C)CC3)cc2)cc1Nc1nc(-c2cccnc2)cs1` [MASITINIB], for which the EC50 in the test on M07e, with CMS, with CMK, in the test with U937 [8], with MOLM-13 [2] and with CHRF288-11 [3] was greater than 10 µM in each case. Further, the EC50 in the test with ML-2 and with MV4-11 [7] was greater than 10 µM in each case.

With `CC[C@H](C)C(=O)O[C@H]1C[C@@H](C)C=C2C=C[C@H](C)[C@H](CC[C@@H]3C[C@@H](O)CC(=O)O3)[C@H]21` [LOVASTATIN], the EC50 is greater than 10 µM in the test with M07e; greater than 10 µM with U937 [1]; greater than 10 µM with MOLM-13 [5]; greater than 10 µM in the test on CMS; 6.3 µM in the test on CHRF288-11 [6]; greater than 10 µM in the test with CMK. Moreover, the EC50 with ML-2 and in the test on MV4-11 [4] was greater than 10 µM in each case.
